Data reported in ChEMBL document CHEMBL6121045, “Effects of Heparan Sulfate Trisaccharide Containing Oleanolic Acid in Attenuating Hyperphosphorylated Tau-Induced Cell Dysfunction Associated with Alzheimer's Disease” (J Med Chem, 2025).
Activity calls are given as the source filed them. No cut-off for these calls is given here.

Assays:
SH-SY5Y [1] = experiment: Cytoprotective activity against p-tau-induced toxicity in human SH-SY5Y cells assessed as cell viability incubated for 12 hrs by CCK-8 assay; assay type: functional, cell-based
SH-SY5Y [2] = experiment: Cytoprotective activity against p-tau-induced toxicity in human SH-SY5Y cells incubated for 24 hrs by TEM analysis; assay type: functional, cell-based
SH-SY5Y [3] = experiment: Protective activity against p-tau induced ER-stress associated apoptosis in human SH-SY5Y cells assessed as reduction in GADD34 mRNA expression by qRT-PCR analysis; assay type: functional, cell-based
SH-SY5Y [4] = experiment: Antiinflammatory activity against p-tau-induced human SH-SY5Y cells assessed as reduction in IRF3 mRNA expression at 5 uM by qRT-PCR analysis; assay type: functional, cell-based
SH-SY5Y [5] = experiment: Cytoprotective activity against p-tau-induced toxicity in human SH-SY5Y cells assessed as reduction in cell viability at 0.3 uM incubated for 12 hrs by CCK-8 assay; assay type: functional, cell-based
SH-SY5Y [6] = experiment: Protective activity against p-tau induced ER-stress associated apoptosis in human SH-SY5Y cells assessed as reduction in CHOP mRNA expression by qRT-PCR analysis; assay type: functional, cell-based
SH-SY5Y [7] = experiment: Protective activity against p-tau induced ER-stress associated apoptosis in human SH-SY5Y cells assessed as reduction in ATF4 mRNA expression by qRT-PCR analysis; assay type: functional, cell-based
SH-SY5Y [8] = experiment: Antiinflammatory activity against p-tau-induced human SH-SY5Y cells assessed as reduction in IL1beta mRNA expression at 5 uM by qRT-PCR analysis; assay type: functional, cell-based
SH-SY5Y [9] = experiment: Cytoprotective activity against p-tau-induced toxicity in human SH-SY5Y cells assessed as cell death at 8 uM incubated for 12 hrs by CCK-8 assay; assay type: functional, cell-based
SH-SY5Y [10] = experiment: Antiinflammatory activity against p-tau-induced human SH-SY5Y cells assessed as reduction in TNFalpha mRNA expression at 5 uM by qRT-PCR analysis; assay type: functional, cell-based
SH-SY5Y [11] = experiment: Protective activity against p-tau induced ER-stress associated apoptosis in human SH-SY5Y cells assessed as reduction in TRB3 mRNA expression by qRT-PCR analysis; assay type: functional, cell-based
SH-SY5Y [12] = experiment: Cytoprotective activity against p-tau-induced toxicity in human SH-SY5Y cells assessed as reduction in cell viability at 8 uM incubated for 12 hrs by CCK-8 assay relative to control; assay type: functional, cell-based
SH-SY5Y [13] = experiment: Protective activity against p-tau induced ER-stress in human SH-SY5Y cells assessed as reduction ERdj4 mRNA expression at 5 uM by qRT-PCR analysis; assay type: functional, cell-based
SH-SY5Y [14] = experiment: Protective activity against thapsigargin induced ER-stress in human SH-SY5Y cells assessed as reduction ATF4 mRNA expression at 5 uM incubated for 24 hrs by qRT-PCR analysis; assay type: functional, cell-based
SH-SY5Y [15] = experiment: Protection against p-tau-induced morphological changes in human SH-SY5Y cells assessed as change in cell morphology at 5 uM incubated for 24 hrs by contrast microscopic analysis; assay type: functional, cell-based
SH-SY5Y [16] = experiment: Protective activity against p-tau induced UPR response in human SH-SY5Y cells assessed as reduction spliced Xbp1 mRNA expression at 5 uM by qRT-PCR analysis; assay type: functional, cell-based
SH-SY5Y [17] = experiment: Protective activity against thapsigargin induced ER-stress in human SH-SY5Y cells assessed as reduction P58ipk mRNA expression at 5 uM incubated for 24 hrs by qRT-PCR analysis; assay type: functional, cell-based
SH-SY5Y [18] = experiment: Protection against p-tau-induced morphological changes in human SH-SY5Y cells assessed as change in cell density at 5 uM incubated for 24 hrs by contrast microscopic analysis; assay type: functional, cell-based
SH-SY5Y [19] = experiment: Protective activity against thapsigargin induced ER-stress in human SH-SY5Y cells assessed as reduction Xbp1s mRNA expression at 5 uM incubated for 24 hrs by qRT-PCR analysis; assay type: functional, cell-based
SH-SY5Y [20] = experiment: Cytoprotective activity against p-tau-induced toxicity in human SH-SY5Y cells assessed as reduction in cell viability at 8 uM incubated for 12 hrs by CCK-8 assay; assay type: functional, cell-based
SH-SY5Y [21] = experiment: Protective activity against p-tau induced ER-stress in human SH-SY5Y cells assessed as reduction spliced Xbp1 mRNA expression at 5 uM by qRT-PCR analysis; assay type: functional, cell-based
SH-SY5Y [22] = experiment: Protective activity against p-tau induced ER-stress in human SH-SY5Y cells assessed as reduction Bip mRNA expression at 5 uM by qRT-PCR analysis; assay type: functional, cell-based
SH-SY5Y [23] = experiment: Protective activity against tunicamycin induced ER-stress in human SH-SY5Y cells assessed as reduction Xbp1s mRNA expression at 5 uM incubated for 24 hrs by qRT-PCR analysis; assay type: functional, cell-based
[24] = biological target: Microtubule-associated protein tau (Homo sapiens, UniProt P10636); experiment: Inhibition of BLI biosensor-immobilized heparin binding to p-tau hyperphosphorylation (unknown origin) by Biolayer interferometry analysis
Microtubule-associated protein tau, sequence (P10636 whole entry): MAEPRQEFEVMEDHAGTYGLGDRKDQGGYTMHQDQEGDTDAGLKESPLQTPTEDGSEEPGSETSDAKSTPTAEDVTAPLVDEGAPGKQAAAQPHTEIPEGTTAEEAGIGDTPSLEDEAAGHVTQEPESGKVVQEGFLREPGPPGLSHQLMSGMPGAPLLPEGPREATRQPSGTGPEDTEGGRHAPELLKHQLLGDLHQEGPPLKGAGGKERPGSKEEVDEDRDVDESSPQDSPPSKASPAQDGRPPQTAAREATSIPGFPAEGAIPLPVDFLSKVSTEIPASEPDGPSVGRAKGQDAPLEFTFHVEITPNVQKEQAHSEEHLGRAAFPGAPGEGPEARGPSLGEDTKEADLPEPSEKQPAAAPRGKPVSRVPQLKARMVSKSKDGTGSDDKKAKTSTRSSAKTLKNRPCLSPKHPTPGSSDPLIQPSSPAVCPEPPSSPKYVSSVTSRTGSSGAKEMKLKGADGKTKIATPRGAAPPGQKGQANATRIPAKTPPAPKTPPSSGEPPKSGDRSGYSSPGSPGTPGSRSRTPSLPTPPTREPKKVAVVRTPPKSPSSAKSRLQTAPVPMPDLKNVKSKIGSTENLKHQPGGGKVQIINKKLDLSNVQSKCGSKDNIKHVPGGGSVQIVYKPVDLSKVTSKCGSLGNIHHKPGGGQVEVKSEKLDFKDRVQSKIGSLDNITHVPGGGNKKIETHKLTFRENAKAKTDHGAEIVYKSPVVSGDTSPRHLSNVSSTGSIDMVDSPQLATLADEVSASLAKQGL

SH-SY5Y [25] = experiment: Protective activity against p-tau induced UPR response in human SH-SY5Y cells assessed as reduction Bip mRNA expression at 5 uM by qRT-PCR analysis; assay type: functional, cell-based
Platelet factor 4 = biological target: T1, Platelet factor 4 (Homo sapiens, UniProt P02776); experiment: Binding affinity to human recombinant PF4 by Biolayer interferometry analysis
T1 sequence (P02776 whole entry): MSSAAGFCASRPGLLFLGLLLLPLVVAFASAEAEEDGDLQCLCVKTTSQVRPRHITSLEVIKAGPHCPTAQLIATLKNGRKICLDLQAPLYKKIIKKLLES

SH-SY5Y [26] = experiment: Protective activity against tunicamycin induced ER-stress in human SH-SY5Y cells assessed as reduction P58ipk mRNA expression at 5 uM incubated for 24 hrs by qRT-PCR analysis; assay type: functional, cell-based
SH-SY5Y [27] = experiment: Protective activity against p-tau induced UPR response in human SH-SY5Y cells assessed as reduction ERdj4 mRNA expression at 5 uM by qRT-PCR analysis; assay type: functional, cell-based
SH-SY5Y [28] = experiment: Protective activity against tunicamycin induced ER-stress in human SH-SY5Y cells assessed as reduction ATF4 mRNA expression at 5 uM incubated for 24 hrs by qRT-PCR analysis; assay type: functional, cell-based

SMILES | EC50 (SH-SY5Y [1]) | Activity (SH-SY5Y [2]) | Activity (SH-SY5Y [3]) | Activity (SH-SY5Y [4]) | Activity (SH-SY5Y [6]) | Activity (SH-SY5Y [7]) | Activity (SH-SY5Y [8]) | Activity (SH-SY5Y [9]) | Activity (SH-SY5Y [10]) | Activity (SH-SY5Y [11]) | other results
CN1CCc2cccc3c2[C@H]1Cc1ccc(O)c(O)c1-3 [APOMORPHINE] | 2.9 µM | Active | – | – | – | – | – | – | – | – | –
O=C(O)[C@H]1O[C@@H](O[C@H]2[C@H](O)[C@@H](NS(=O)(=O)O)[C@H](OCCNS(=O)(=O)O)O[C@@H]2COS(=O)(=O)O)[C@H](O)[C@@H](O)[C@@H]1O[C@H]1O[C@H](COS(=O)(=O)O)[C@@H](O)[C@H](O)[C@H]1NS(=O)(=O)O | – | – | inactive | inactive | inactive | inactive | inactive | inactive | inactive | inactive | Activity (SH-SY5Y [5]): Moderate_effect
COC(=O)[C@]12CCC(C)(C)C[C@H]1C1=CCC3[C@@]4(C)CC[C@H](O)C(C)(C)C4CC[C@@]3(C)C1(C)CC2 (some centres undefined) | – | – | – | – | – | – | – | – | – | – | Activity (SH-SY5Y [12]): No effect
COC(=O)[C@]12CCC(C)(C)C[C@H]1C1=CCC3[C@@]4(C)CC[C@H](O[C@@H]5O[C@H](COS(=O)(=O)O)[C@@H](O[C@@H]6O[C@H](C(=O)O)[C@@H](O[C@H]7O[C@H](COS(=O)(=O)O)[C@@H](O)[C@H](O)[C@H]7NS(=O)(=O)O)[C@H](O)[C@H]6O)[C@H](O)[C@H]5NS(=O)(=O)O)C(C)(C)C4CC[C@@]3(C)C1(C)CC2 (some centres undefined) | 2.69 µM | Active | Active | Active | Active | Active | Active | inactive | Active | Active | Activity (SH-SY5Y [13]): Active; Activity (SH-SY5Y [14]): inactive; Activity (SH-SY5Y [15]): Active; Activity (SH-SY5Y [16]): Active; Activity (SH-SY5Y [17]): inactive; Activity (SH-SY5Y [18]): Active; Activity (SH-SY5Y [19]): inactive; Activity (SH-SY5Y [20]): Active; Activity (SH-SY5Y [21]): Active; Activity (SH-SY5Y [22]): Active; Activity (SH-SY5Y [23]): inactive; IC50 [24]: 28.8 µM; Activity (SH-SY5Y [25]): Active; IC50 (Platelet factor 4): 21.8 µM; Activity (SH-SY5Y [26]): inactive; Activity (SH-SY5Y [27]): Active; Activity (SH-SY5Y [28]): inactive
